Results published in patent publication US20090305993A1, “METHODS AND COMPOSITION FOR THE TREATMENT OF GASTROINTESTINAL DISORDERS” (IRONWOOD PHARMACEUTICALS, INC., priority 2006, published 2009).
Where a SMILES comes first, the peptide text is derived from it. Bridges are numbered along the chain shown (N, C = ends).

Tests used:
[1] = tested on: Female CD rats; assay: ligated loop model in rats (cGMP, secretion); assay type: in vivo; details: center loop of the rat small intestine, 5 μg, FIG. 17b
From the text: In the case of the rat, however four loops of intestine were surgically ligated. The first three loops were distributed equally in the small intestine and the fourth loop was located in colon. […] SEQ ID NO:3 increases cGMP levels and secretion in the center loop of the rat small intestine as shown in FIG. 17b (n=9-10 animal per group for secretion assays; n=7-8 animals for cGMP assays).

[2] = target: T1, carboxypeptidase A (Homo sapiens, UniProt P15085); assay: in vitro proteolytic stability, carboxypeptidase A
T1 sequence (P15085 111-419): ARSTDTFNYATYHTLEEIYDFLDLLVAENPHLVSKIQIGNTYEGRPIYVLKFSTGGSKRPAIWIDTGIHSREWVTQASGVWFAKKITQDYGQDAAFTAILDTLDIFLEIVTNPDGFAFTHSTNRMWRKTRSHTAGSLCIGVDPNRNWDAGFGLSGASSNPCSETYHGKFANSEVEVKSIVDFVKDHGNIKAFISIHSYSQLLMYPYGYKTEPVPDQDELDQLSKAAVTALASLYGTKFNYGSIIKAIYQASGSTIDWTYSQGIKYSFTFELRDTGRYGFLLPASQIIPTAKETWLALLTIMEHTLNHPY
Description: The stability of SEQ ID NO:3 in the presence of several mammalian digestive enzymes was determined. SEQ ID NO:3 was exposed to a variety of in vitro conditions including digestive enzymes and low ph environments designed to simulate gastric fluid. SEQ ID NO:3 was incubated with chymotrypsin, trypsin, pepsin, aminopeptidase, carboxypeptidase A, and simulated gastric fluid (sgf) at ph 1.0. Samples were collected at 0, 3, and 24 h for all conditions except pepsin digestion and the SGF. For the latter two conditions, samples were obtained at 0, 1, and 3 h. Negative control samples were prepared for initial and final time points. A separate, positive activity control was run in parallel to SEQ ID NO:3. All samples were analyzed by LC/MS
Five (5) μL of a 40 μg/mL carboxypeptidase inhibitor (carboxypeptidase inhibitor from potato tuber (Sigma-Aldrich, C0279) stock was added to each control sample (0 and 24 h), for a final concentration of 0.4 μg/mL. All control and test (0, 3 and 24 h) samples were incubated at 37° C. for 5 min. Twenty (20) μL of a 0.01 mg/mL carboxypeptidase A (Carboxypeptidase A from human pancreas; Sigma-Aldrich, C5358) stock was added to each sample. The samples were returned to the 37° C. water bath. The reaction was quenched with 5 μL of a 40 μg/mL carboxypeptidase inhibitor at the proper time point. No extra carboxypeptidase inhibitor was added to the control samples since there was already inhibitor present. Samples were subsequently flash frozen in liquid nitrogen, and stored at −80° C. until analysis. Upon analysis, samples were thawed and transferred to a 1 mL 96-well deep microtiter plate. […] These standards were used to generate a standard curve for quantification of samples. When necessary, the standard curves were also used to calculate the concentration of the corresponding digestion product. Ten (10) μL injections were made of each sample and standard.
To further study the SEQ ID NO:3 carboxypeptidase A digestion product, samples of 0.01 mg/mL SEQ ID NO:3 were prepared in the carboxypeptidase A reaction buffer at a total volume of 500 μL in 2 mL eppendorf tubes. Triplicate samples were prepared for the following time points: 0, 15, 30, 60, 120, 180 and 240 min. The samples were incubated at 37° C. for 5 min. Twenty (20) μL of a 0.01 mg/mL carboxypeptidase A stock were added to each sample and returned to the 37° C. water bath. The reactions were quenched with 5 μL of a 40 μg/mL carboxypeptidase inhibitor at the proper time points. Samples were subsequently flash frozen in liquid nitrogen, and stored at −80° C. until analysis. Upon analysis, samples were thawed and transferred to a 1 mL 96-well plate. Standards of SEQ ID NO:3 were prepared in carboxypeptidase A reaction buffer at 0.625, 1.25, 2.50, 5.00, and 10.00 μg/mL concentrations. These standards were used to generate a standard curve for quantification of samples. When necessary, the standard curves were also used to calculate the concentration of the corresponding digestion product. Ten (10) μL injections were made of each sample and standard. If the formation of a digestion product was evident, then a spectral analysis was used to determine the mass of the digestion product, and predict its possible identity.

[3] = tested on: adult male Wistar rats; assay: basal visceral nociception (visceromotor response to CRD); assay type: in vivo, rat
Description: The effect of SEQ ID NO:3 on basal visceral nociception in a model of water avoidance stress-induced visceral hyperalgesia in adult male Wistar rats was tested. The stress involved confining rats to a platform surrounded by water for a period of 1 hour and then measuring their visceromotor response to colonic distension using electromyography (EMG).
Electrode leads were then tunneled subcutaneously and externalized laterally for future access. Following surgery, rats were housed in pairs and allowed to recover for at least 7 days. On the day of the experiment, animals were lightly anesthetized with halothane, and a lubricated latex balloon (6 cm) was inserted intra-anally into the descending colon. Animals were allowed to recover for 30 minutes, and colorectal distension (CRD) was initiated. The CRD procedure consisted of graded intensities of phasic CRD (10, 20, 40, 60 mmHg; 20 s duration; 4 min inter-stimulus interval). Visceromotor response (VMR) to CRD was quantified by measuring EMG activity. […] Animals were allowed 1 hour recovery and then SEQ ID NO:3 or vehicle was orally administered. At 1 hour following administration of SEQ ID NO:3 or vehicle CRD was repeated. […] The mean value (+/−SEM) of in vehicle and SEQ ID NO:3 treated groups (n=7 for each group) is graphically depicted in FIG. 7e.

Compound: C[C@@H]1NC(=O)[C@@H]2CCCN2C(=O)[C@H](CC(N)=O)NC(=O)[C@@H]2CSSC[C@H](N)C(=O)N[C@H]3CSSC[C@H](NC1=O)C(=O)N[C@@H]([C@@H](C)O)C(=O)NCC(=O)N[C@H](C(=O)N[C@@H](Cc1ccc(O)cc1)C(=O)O)CSSC[C@H](NC(=O)[C@H](Cc1ccc(O)cc1)NC(=O)[C@H](CCC(=O)O)NC3=O)C(=O)N2 [SEQ ID NO:3] (H-CCEYCCNPACTGCY-OH; disulfide 1-6, 2-10, 5-13; N-terminus and C-terminus assumed)
- cGMP levels in ligated loop [1]: increases
- secretion in ligated loop [1]: increases
- proteolysis by carboxypeptidase A ([2]; 37° C., FIG. 13a, 13b): some proteolysis
- Cleavage of SEQ ID NO: 3 by proteolytic substance ([2]; Carboxypetidase A, 37° C., up to 24 h): Yes
- average calculated product concentrations ([2]; T3 h samples): 1.3 (+/−0.06) μg/mL
- average calculated product concentrations ([2]; T24 h samples): 1.3 (+/−0.04) μg/mL
- calculated concentrations of parent ([2]; all samples): 8.4 (+/−1.2) μg/mL
- average concentration ([2]; carboxypeptidase A digestion of SEQ ID NO:3, T0): 5115 (+/−121) nM
- average concentration ([2]; carboxypeptidase A digestion of SEQ ID NO:3, T240 (240 min)): 4438 (+/−188) nM
- calculated concentrations for the products ([2]; time 0 control (with inhibitor)): 0.8 (+/−0.02) μg/mL
- calculated concentrations for the products ([2]; time 0 samples): 0.8 (+/−0.01) μg/mL
- basal visceral nociception ([3]; oral 3 μg/kg): no effects
- basal visceral nociception ([3]; oral 30 μg/kg, versus vehicle, FIG. 7e): increased basal visceral nociception
